We go through two compounds from ChEMBL document CHEMBL4627384, “l-Thyroxin and the Nonclassical Thyroid Hormone TETRAC Are Potent Activators of PPARγ” (J Med Chem, 2020).

The structures appear in SMILES notation. Activity calls are given as the source filed them. The calls are words filed in the database; no cut-off is given here.

Series [1] in a line: Drug metabolism in human HepG2 cells assessed as (S)-2-amino-3-(4-(4-hydroxy-3-iodophenoxy)-3,5-diiodophenyl)propanoic acid formation at 10 uM incubated for 24 hrs by LC-MS analysis. The format is ADME, cell-based. Conditions: hepg2, 24 h.
Series [2] has as its target T1, Peroxisome proliferator-activated receptor gamma (Homo sapiens) (UniProt P37231).
T1 sequence (whole entry): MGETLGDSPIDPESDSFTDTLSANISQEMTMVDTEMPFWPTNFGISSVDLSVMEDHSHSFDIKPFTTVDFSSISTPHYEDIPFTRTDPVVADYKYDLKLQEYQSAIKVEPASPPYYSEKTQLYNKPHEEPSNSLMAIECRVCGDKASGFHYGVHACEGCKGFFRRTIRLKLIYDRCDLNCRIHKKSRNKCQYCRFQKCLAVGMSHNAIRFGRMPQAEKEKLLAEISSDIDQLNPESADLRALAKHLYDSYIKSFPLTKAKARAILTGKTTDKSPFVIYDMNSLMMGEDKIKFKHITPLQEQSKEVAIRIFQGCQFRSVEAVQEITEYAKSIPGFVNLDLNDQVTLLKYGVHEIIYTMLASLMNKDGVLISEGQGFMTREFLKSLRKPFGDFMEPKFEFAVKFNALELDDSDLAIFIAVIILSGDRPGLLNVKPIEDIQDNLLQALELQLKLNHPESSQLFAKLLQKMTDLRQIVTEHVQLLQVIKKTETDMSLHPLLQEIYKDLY
Briefly: Agonist activity at PPARgamma in human HepG2 cells with THRB knockdown assessed as induction of CD36 expression at 30 uM incubated for 8 hrs in by Western blot analysis. The format is cell-based. (In general: A western blot detects proteins with antibodies after separation by electrophoresis.)

For series [3], the target named is T1, Peroxisome proliferator-activated receptor gamma (Homo sapiens). Briefly: Agonist activity at PPARgamma in human HepG2 cells without THRA knockdown assessed as induction of CD36 expression at 30 uM incubated for 8 hrs in by Western blot analysis. The format is cell-based.
The target is the same in series [4]. In words: Agonist activity at recombinant human pFA-CMV fused PPARgamma LBD expressed in HEK293T cells transfected with pFR-luciferase plasmid and pRL-SV40 plasmid at 15 uM incubated for 14 to 16 hrs in presence of PPARgamma antagonist GW9662 by dual glo luciferase reporter gene assay. The settings on record: HEK-293T. The format is cell-based.
Series [5] has the same target. In words: Agonist activity at PPARgamma in human HepG2 cells assessed as induction of CD36 mRNA expression at 30 uM incubated for 8 hrs in presence of PPARgamma antagonist GW9662 by qPCR analysis. The format is cell-based. Background: In qPCR the cycle at which signal appears reflects the starting amount.
Series [6] can be described thus: Drug metabolism in human HepG2 cells assessed as 2-(4-(4-hydroxy-3,5-diiodophenoxy)-3,5-diiodophenyl)acetic acid formation at 10 uM incubated for 24 hrs by LC-MS analysis. The format is ADME, cell-based. Conditions: hepg2, 24 h.
Series [7] in a line: Drug level in human serum by RIA. The format is ADME, cell-free. Conditions: read-out: Drug uptake.
Series [8] addresses RXR alpha/PPAR gamma (Homo sapiens) (UniProt P37231+P19793). In words: Agonist activity at recombinant human pFA-CMV fused PPARgamma LBD transfected in HEK293T cells/human pFA-CMV fused RXRalpha LBD transfected in HEK293T cells assessed as increase in reporter activation at 0.1 to 3 uM incubated for 14 to 16 hrs using […]:RXRalpha LBD at ratio of 4:1 to 1:1 by dual glo luciferase reporter gene assay relative to rosiglitazone. The format is cell-based. The settings on record: HEK-293T. For orientation: A reporter such as luciferase makes a cellular process visible.

For series [9], the target named is T1, Peroxisome proliferator-activated receptor gamma (Homo sapiens). In words: Agonist activity at PPARgamma in human HepG2 cells without THRB knockdown assessed as induction of CD36 expression at 1 uM incubated for 8 hrs in by Western blot analysis. In kind it is cell-based.
The target of series [10] is T2, Peroxisome proliferator-activated receptor gamma (Mus musculus) (UniProt P37238).
T2 sequence (whole entry): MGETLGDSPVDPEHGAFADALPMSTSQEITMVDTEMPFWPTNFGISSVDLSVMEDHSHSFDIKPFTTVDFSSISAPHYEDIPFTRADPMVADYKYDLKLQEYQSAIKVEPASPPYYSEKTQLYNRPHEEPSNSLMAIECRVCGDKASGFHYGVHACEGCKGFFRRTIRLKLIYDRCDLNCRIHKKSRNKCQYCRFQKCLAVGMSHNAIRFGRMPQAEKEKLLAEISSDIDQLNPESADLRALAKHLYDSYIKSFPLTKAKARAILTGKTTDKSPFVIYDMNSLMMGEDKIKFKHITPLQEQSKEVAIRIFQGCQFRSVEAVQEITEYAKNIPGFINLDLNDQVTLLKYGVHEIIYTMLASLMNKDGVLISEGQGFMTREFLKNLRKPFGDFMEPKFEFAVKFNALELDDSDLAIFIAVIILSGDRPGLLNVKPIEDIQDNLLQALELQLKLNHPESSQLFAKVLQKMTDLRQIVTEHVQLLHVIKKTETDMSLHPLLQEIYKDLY
Briefly: Agonist activity at PPARgamma in mouse 3T3L1 adipocytes assessed as induction of FABP4 mRNA expression at 1 uM by qRT-PCR analysis. In kind it is cell-based. Conditions: 3T3-L1.

For series [11], the target named is T2, Peroxisome proliferator-activated receptor gamma (Mus musculus). In words: Agonist activity at PPARgamma in mouse 3T3L1 adipocytes assessed as induction of LPL mRNA expression at 1 uM by qRT-PCR analysis. The settings on record: 3T3-L1. In kind it is cell-based.
The target in series [12] is T1, Peroxisome proliferator-activated receptor gamma (Homo sapiens). In words: Agonist activity at N-terminal GFP-fused PPARgamma LBD (unknown origin) assessed as biotin-labeled SRC-1 recruitment incubated for 2 hrs by HT-FRET assay.
Series [13] is filed under the species Homo sapiens. In words: Agonist activity at PPARgamma LBD (unknown origin)/GFP-tagged RXRalpha mutant (unknown origin) assessed as biotin-labeled CBP recruitment to […]:RXRalpha mutant fusion protein heterodimer incubated for 2 hrs by HT-FRET assay.
Series [14] deals with T3, Thyroid hormone receptor alpha (Homo sapiens, UniProt P10827).
T3 sequence (P10827 whole entry): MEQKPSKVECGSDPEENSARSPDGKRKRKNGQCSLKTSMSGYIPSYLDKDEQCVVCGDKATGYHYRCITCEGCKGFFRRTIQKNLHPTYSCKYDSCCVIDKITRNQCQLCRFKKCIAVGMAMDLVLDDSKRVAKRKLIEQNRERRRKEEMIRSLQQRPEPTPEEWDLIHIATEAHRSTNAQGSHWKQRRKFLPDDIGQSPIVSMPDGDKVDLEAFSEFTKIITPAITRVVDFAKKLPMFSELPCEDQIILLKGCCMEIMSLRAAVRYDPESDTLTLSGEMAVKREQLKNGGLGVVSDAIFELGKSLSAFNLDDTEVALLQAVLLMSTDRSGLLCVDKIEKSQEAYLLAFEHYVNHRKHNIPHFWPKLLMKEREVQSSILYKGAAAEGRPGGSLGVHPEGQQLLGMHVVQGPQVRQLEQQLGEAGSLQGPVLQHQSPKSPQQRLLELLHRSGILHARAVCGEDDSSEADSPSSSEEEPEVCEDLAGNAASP
Briefly: Agonist activity at THRalpha (unknown origin) incubated for 14 to 16 hrs by dual glo luciferase reporter gene assay.

For series [15], the target named is T1, Peroxisome proliferator-activated receptor gamma (Homo sapiens). In words: Agonist activity at PPARgamma in human HepG2 cells with THRA knockdown assessed as induction of CD36 expression at 1 uM incubated for 8 hrs in by Western blot analysis. The format is cell-based.

For the compound `N[C@@H](Cc1cc(I)c(Oc2cc(I)c(O)c(I)c2)c(I)c1)C(=O)O` [LEVOTHYROXINE], the Drug metabolism in series [1] stood at 174 ng; in series [6] it was 44 ng. Further, the result in series [2] and in [3] was Active. Besides, the result in series [4] and in series [5] was inactive.

As a reminder, the EC50 is the concentration that produces a half-maximal response. Low values mean a more potent agent, high ones a less potent agent. For `O=C(O)Cc1cc(I)c(Oc2cc(I)c(O)c(I)c2)c(I)c1` [TETRAC], the concentration in [7] was found to be 1.6 nM. Besides, the result in [8], in series [9], in series [10], in [11], in series [12] and in series [13] was Active. In addition, in series [15], the result was Active. This compound yielded an EC50 in series [14] of 20 nM.
